Experimental data as given in patent US10118935B2, “Melampomagnolide B dimers” (priority 2014, dated 2018).

Tests used:
NCI/ADR-RES = test: NCI 60 cell line five dose, Ovarian Cancer; details: NCI/ADR-
SR = test: NCI 60 cell line five dose, Leukemia
PC-3 = test: NCI 60 cell line five dose, Prostate Cancer
KM12 = test: NCI 60 cell line five dose, Colon Cancer
SK-OV-3 = test: NCI 60 cell line five dose, Ovarian Cancer
HCT-15 = test: NCI 60 cell line five dose, Colon Cancer
U251 = test: NCI 60 cell line five dose, CNS Cancer
MDA-MB-468 = test: NCI 60 cell line five dose, Breast Cancer
786-0 = test: NCI 60 cell line five dose, Renal Cancer
SF-295 = test: NCI 60 cell line five dose, CNS Cancer
HOP-92 = test: NCI 60 cell line five dose, Non-Small Cell Lung Cancer
MCF7 = test: NCI 60 cell line five dose, Breast Cancer
ACHN = test: NCI 60 cell line five dose, Renal Cancer
A549/ATCC = test: NCI 60 cell line five dose, Non-Small Cell Lung Cancer
CCRF-CEM = test: NCI 60 cell line five dose, Leukemia
MALME-3M = test: NCI 60 cell line five dose, Melanoma; details: MAL1ME-3M
OVCAR-3 = test: NCI 60 cell line five dose, Ovarian Cancer
M14 = test: NCI 60 cell line five dose, Melanoma
NCI-H460 = test: NCI 60 cell line five dose, Non-Small Cell Lung Cancer
UO-31 = test: NCI 60 cell line five dose, Renal Cancer
OVCAR-5 = test: NCI 60 cell line five dose, Ovarian Cancer

C=C1C(=O)O[C@H]2[C@H]1CC/C(COC(=O)NCCCCNC(=O)OC/C1=C/CC[C@@]3(C)O[C@H]3[C@H]3OC(=O)C(=C)[C@@H]3CC1)=C\CC[C@@]1(C)O[C@@H]21 [JVM 3-54, bis(((1aR,7aS,10aS,10bS,E)-1a-Methyl-8-methylene-9-oxo-1a,2,3,6,7,7a,8,9,10a,10b-decahydrooxireno[2′,3′:9,10]cyclodeca[1,2-b]furan-5-yl)methyl)butane-1,4-diyldicarbamate]
GI50 (NCI/ADR-RES): 37.7 µM | Percent Growth (NCI/ADR-RES; Log10 Concentration −4.0): 23% | Percent Growth (NCI/ADR-RES; Log10 Concentration −5.0): 86% | Percent Growth (NCI/ADR-RES; Log10 Concentration −6.0): 99% | Percent Growth (NCI/ADR-RES; Log10 Concentration −7.0): 90% | Percent Growth (NCI/ADR-RES; Log10 Concentration −8.0): 94% | CC50 (NCI/ADR-RES; read-out: LC50): > 100 µM | GI50 (SR): 549 nM | TGI (SR): 3.51 µM | Percent Growth (SR; Log10 Concentration −4.0): −34% | Percent Growth (SR; Log10 Concentration −5.0): −29% | Percent Growth (SR; Log10 Concentration −6.0): 35% | Percent Growth (SR; Log10 Concentration −7.0): 94% | Percent Growth (SR; Log10 Concentration −8.0): 93% | CC50 (SR; read-out: LC50): > 100 µM | GI50 (PC-3): 2550 nM | TGI (PC-3): 8.05 µM | Percent Growth (PC-3; Log10 Concentration −4.0): −93% | Percent Growth (PC-3; Log10 Concentration −5.0): −9% | Percent Growth (PC-3; Log10 Concentration −6.0): 91% | Percent Growth (PC-3; Log10 Concentration −7.0): 99% | Percent Growth (PC-3; Log10 Concentration −8.0): 99% | CC50 (PC-3; read-out: LC50): 30.5 µM | GI50 (KM12): 3.18 µM | TGI (KM12): 10.5 µM | Percent Growth (KM12; Log10 Concentration −4.0): −80% | Percent Growth (KM12; Log10 Concentration −5.0): 2% | Percent Growth (KM12; Log10 Concentration −6.0): 99% | Percent Growth (KM12; Log10 Concentration −7.0): 100% | Percent Growth (KM12; Log10 Concentration −8.0): 102% | CC50 (KM12; read-out: LC50): 43.3 µM | GI50 (SK-OV-3): 12.7 µM | TGI (SK-OV-3): 25.3 µM | Percent Growth (SK-OV-3; Log10 Concentration −4.0): −100% | Percent Growth (SK-OV-3; Log10 Concentration −5.0): 67% | Percent Growth (SK-OV-3; Log10 Concentration −6.0): 107% | Percent Growth (SK-OV-3; Log10 Concentration −7.0): 102% | Percent Growth (SK-OV-3; Log10 Concentration −8.0): 98% | CC50 (SK-OV-3; read-out: LC50): 50.4 µM | GI50 (HCT-15): 5.61 µM | TGI (HCT-15): 20.8 µM | Percent Growth (HCT-15; Log10 Concentration −4.0): 79% | Percent Growth (HCT-15; Log10 Concentration −5.0): 37% | Percent Growth (HCT-15; Log10 Concentration −6.0): 90% | Percent Growth (HCT-15; Log10 Concentration −7.0): 94% | Percent Growth (HCT-15; Log10 Concentration −8.0): 96% | CC50 (HCT-15; read-out: LC50): 56.3 µM | GI50 (U251): 2940 nM | TGI (U251): 9.83 µM | Percent Growth (U251; Log10 Concentration −4.0): −95% | Percent Growth (U251; Log10 Concentration −5.0): −1% | Percent Growth (U251; Log10 Concentration −6.0): 95% | Percent Growth (U251; Log10 Concentration −7.0): 101% | Percent Growth (U251; Log10 Concentration −8.0): 99% | CC50 (U251; read-out: LC50): 33.3 µM | GI50 (MDA-MB-468): 426 nM | TGI (MDA-MB-468): 2 µM | Percent Growth (MDA-MB-468; Log10 Concentration −4.0): −69% | Percent Growth (MDA-MB-468; Log10 Concentration −5.0): −59% | Percent Growth (MDA-MB-468; Log10 Concentration −6.0): 26% | Percent Growth (MDA-MB-468; Log10 Concentration −7.0): 91% | Percent Growth (MDA-MB-468; Log10 Concentration −8.0): 92% | CC50 (MDA-MB-468; read-out: LC50): 7.76 µM | GI50 (786-0): 1990 nM | TGI (786-0): 4.25 µM | Percent Growth (786-0; Log10 Concentration −4.0): −91% | Percent Growth (786-0; Log10 Concentration −5.0): −56% | Percent Growth (786-0; Log10 Concentration −6.0): 95% | Percent Growth (786-0; Log10 Concentration −7.0): 91% | Percent Growth (786-0; Log10 Concentration −8.0): 98% | CC50 (786-0; read-out: LC50): 9.11 µM | GI50 (SF-295): 13 µM | TGI (SF-295): 27.4 µM | Percent Growth (SF-295; Log10 Concentration −4.0): −87% | Percent Growth (SF-295; Log10 Concentration −5.0): 68% | Percent Growth (SF-295; Log10 Concentration −6.0): 98% | Percent Growth (SF-295; Log10 Concentration −7.0): 89% | Percent Growth (SF-295; Log10 Concentration −8.0): 92% | CC50 (SF-295; read-out: LC50): 57.7 µM | GI50 (HOP-92): 287 nM | TGI (HOP-92): 1.06 µM | Percent Growth (HOP-92; Log10 Concentration −4.0): −92% | Percent Growth (HOP-92; Log10 Concentration −5.0): −76% | Percent Growth (HOP-92; Log10 Concentration −6.0): 2% | Percent Growth (HOP-92; Log10 Concentration −7.0): 91% | Percent Growth (HOP-92; Log10 Concentration −8.0): 91% | TGI (MCF7): 1.8 µM | Percent Growth (MCF7; Log10 Concentration −4.0): −42% | Percent Growth (MCF7; Log10 Concentration −5.0): −69% | Percent Growth (MCF7; Log10 Concentration −6.0): 24% | Percent Growth (MCF7; Log10 Concentration −7.0): 87% | Percent Growth (MCF7; Log10 Concentration −8.0): 92% | GI50 (ACHN): 3.44 µM | TGI (ACHN): 12.9 µM | Percent Growth (ACHN; Log10 Concentration −4.0): −91% | Percent Growth (ACHN; Log10 Concentration −5.0): 11% | Percent Growth (ACHN; Log10 Concentration −6.0): 95% | Percent Growth (ACHN; Log10 Concentration −7.0): 97% | Percent Growth (ACHN; Log10 Concentration −8.0): 100% | CC50 (ACHN; read-out: LC50): 39.8 µM | GI50 (A549/ATCC): 8.02 µM | TGI (A549/ATCC): 23.1 µM | Percent Growth (A549/ATCC; Log10 Concentration −4.0): −79% | Percent Growth (A549/ATCC; Log10 Concentration −5.0): 45% | Percent Growth (A549/ATCC; Log10 Concentration −6.0): 99% | Percent Growth (A549/ATCC; Log10 Concentration −7.0): 99% | Percent Growth (A549/ATCC; Log10 Concentration −8.0): 100% | CC50 (A549/ATCC; read-out: LC50): 58.7 µM | GI50 (CCRF-CEM): 272 nM | TGI (CCRF-CEM): 845 nM | Percent Growth (CCRF-CEM; Log10 Concentration −4.0): −50% | Percent Growth (CCRF-CEM; Log10 Concentration −5.0): −46% | Percent Growth (CCRF-CEM; Log10 Concentration −6.0): −7% | Percent Growth (CCRF-CEM; Log10 Concentration −7.0): 94% | Percent Growth (CCRF-CEM; Log10 Concentration −8.0): 98% | CC50 (CCRF-CEM; read-out: LC50): > 100 µM | GI50 (MALME-3M): 452 nM | TGI (MALME-3M): 2.19 µM | Percent Growth (MALME-3M; Log10 Concentration −4.0): −64% | Percent Growth (MALME-3M; Log10 Concentration −5.0): −56% | Percent Growth (MALME-3M; Log10 Concentration −6.0): 29% | Percent Growth (MALME-3M; Log10 Concentration −7.0): 90% | Percent Growth (MALME-3M; Log10 Concentration −8.0): 95% | CC50 (MALME-3M; read-out: LC50): 8.43 µM | GI50 (OVCAR-3): 693 nM | TGI (OVCAR-3): 2.01 µM | Percent Growth (OVCAR-3; Log10 Concentration −4.0): −96% | Percent Growth (OVCAR-3; Log10 Concentration −5.0): −93% | Percent Growth (OVCAR-3; Log10 Concentration −6.0): 40% | Percent Growth (OVCAR-3; Log10 Concentration −7.0): 101% | Percent Growth (OVCAR-3; Log10 Concentration −8.0): 101% | CC50 (OVCAR-3; read-out: LC50): 4.76 µM | GI50 (M14): 1970 nM | TGI (M14): 4.82 µM | Percent Growth (M14; Log10 Concentration −4.0): −84% | Percent Growth (M14; Log10 Concentration −5.0): −41% | Percent Growth (M14; Log10 Concentration −6.0): 88% | Percent Growth (M14; Log10 Concentration −7.0): 88% | Percent Growth (M14; Log10 Concentration −8.0): 94% | CC50 (M14; read-out: LC50): 16.3 µM | GI50 (NCI-H460): 4.61 µM | TGI (NCI-H460): 18 µM | Percent Growth (NCI-H460; Log10 Concentration −4.0): −71% | Percent Growth (NCI-H460; Log10 Concentration −5.0): 24% | Percent Growth (NCI-H460; Log10 Concentration −6.0): 101% | Percent Growth (NCI-H460; Log10 Concentration −7.0): 103% | Percent Growth (NCI-H460; Log10 Concentration −8.0): 102% | CC50 (NCI-H460; read-out: LC50): 60.7 µM | GI50 (UO-31): 7.61 µM | TGI (UO-31): 20.9 µM | Percent Growth (UO-31; Log10 Concentration −4.0): −95% | Percent Growth (UO-31; Log10 Concentration −5.0): 45% | Percent Growth (UO-31; Log10 Concentration −6.0): 88% | Percent Growth (UO-31; Log10 Concentration −7.0): 84% | Percent Growth (UO-31; Log10 Concentration −8.0): 86% | CC50 (UO-31; read-out: LC50): 47.7 µM | GI50 (OVCAR-5): 1750 nM | TGI (OVCAR-5): 3.69 µM | Percent Growth (OVCAR-5; Log10 Concentration −4.0): −72% | Percent Growth (OVCAR-5; Log10 Concentration −5.0): −67% | Percent Growth (OVCAR-5; Log10 Concentration −6.0): 87% | Percent Growth (OVCAR-5; Log10 Concentration −7.0): 92% | Percent Growth (OVCAR-5; Log10 Concentration −8.0): 95% | CC50 (OVCAR-5; read-out: LC50): 7.79 µM
